Measurements published in patent US12624044B2, “SMARCA degraders and uses thereof” (Kymera Therapeutics, Inc., priority 2019, dated 2026).

Target: SMARCA2 (Homo sapiens, UniProt P51531)
Assay: MSD SMARCA2 degradation in NCI-H1299 cell line (24 h)
Assay type: cell-based
Set-up: HC: NCI-H1299 cells treated with DMSO; host or cells: NCI-H1299
Conditions: for Dmax: NCI-H1299, NCI-H1299 cells; for DC50: NCI-H1299 cells, read-out: SMARCA2 MSD H1299 degradation 24 h: External Abs-DC50
Description: Example 32. MSD SMARCA2 Degradation in […] Cell Line
Cell Culture: Cells were cultured in exponential growth phase.
Compound Preparation and Treatment: NCI-H1299 cells were seeded into the 96-well plate at 4.0*10^4 cells per 100 ul per well. Incubate the plate in the incubator overnight. The next day, compounds were diluted to designed stock concentration by TECAN, then perform a 3 fold, 9-point dilution via transferring 15 uL compound into 30 μL DMSO using Apricot. 200 nL diluted compound from compound source plate were transferred into the 96-intermediate plate as designated by using Echo550, followed with 100 ul culture medium to make the 2× compound solution. Cell plate were changed with 80 ul of fresh culture medium and 80 ul of 2× compound solution was added into the well to achieve the final designed concentration. Cell plate was then shaken at 720 rpm for 5 min and incubated for 24 hours in the incubator.
Sample Preparation: Media was aspirated from the cultures and the plate was washed with PBS twice. 60 ul of pre-chilled PIPA lysis buffer (Boston BioProducts BP-115D) with protease inhibitor were directly added into the well to lyze the cells for 20 minutes at 4° C. Cell lysates were collected.
MSD Procedure: The MSD plate was coated with 40 ul cell lysate and incubated at 4° C. overnight. The next day, the MSD coated bare plate was washed 3 times with 150 ul 1×TBST per well, blocked with 150 ul of blocking buffer per well, and shaken for 1 hour at RT, 600 rpm. Blocking buffer was 3% Blocker A in TBST. MSD plate was then washed 3 times with 150 ul 1×TBST per well and Primary Detection antibody (Rabbit anti-SMARCA2/BRM antibody, 100 μg/ml, ab223735) was added to a final [conc.]: 0.3 ug/ml, 25 ul/well and shaken for 1 hour at RT, 600 rpm. Antibody was prepared in Antibody Detection buffer (1% Blocker A in 1×TBST). The MSD plate was then washed 3 times with 150 ul 1×TBST per well. Secondary Detection antibody (SULFO-TAG anti-species antibody) was then added to a final [conc.]: 1 ug/ml, 25 ul/well, and shaken for 1 hour at RT, 600 rpm. Antibodies were prepared in Antibody Detection buffer (1% Blocker A in 1×TBST). MSD plate was washed 3 times with 150 ul 1×TBST per well and 2×MSD reading buffer was added, 150 ul per well, and diluted from 4× with water. MSD instrument was then read.
Data Analysis: The percentage of relative level of SMARCA2 level was calculated following equation below.
LC: A2780, SMARCA2 negative cells. HC: NCI-H1299 cells treated with DMSO.
The letter codes for the percentage of SMARCA2 degradation after 24 hours (Dmax %) include: A (>90% degradation), B (>70-90 degradation), C (50-70 degradation), and D (<50% degradation).

Chain of SMARCA2 (P51531 whole entry): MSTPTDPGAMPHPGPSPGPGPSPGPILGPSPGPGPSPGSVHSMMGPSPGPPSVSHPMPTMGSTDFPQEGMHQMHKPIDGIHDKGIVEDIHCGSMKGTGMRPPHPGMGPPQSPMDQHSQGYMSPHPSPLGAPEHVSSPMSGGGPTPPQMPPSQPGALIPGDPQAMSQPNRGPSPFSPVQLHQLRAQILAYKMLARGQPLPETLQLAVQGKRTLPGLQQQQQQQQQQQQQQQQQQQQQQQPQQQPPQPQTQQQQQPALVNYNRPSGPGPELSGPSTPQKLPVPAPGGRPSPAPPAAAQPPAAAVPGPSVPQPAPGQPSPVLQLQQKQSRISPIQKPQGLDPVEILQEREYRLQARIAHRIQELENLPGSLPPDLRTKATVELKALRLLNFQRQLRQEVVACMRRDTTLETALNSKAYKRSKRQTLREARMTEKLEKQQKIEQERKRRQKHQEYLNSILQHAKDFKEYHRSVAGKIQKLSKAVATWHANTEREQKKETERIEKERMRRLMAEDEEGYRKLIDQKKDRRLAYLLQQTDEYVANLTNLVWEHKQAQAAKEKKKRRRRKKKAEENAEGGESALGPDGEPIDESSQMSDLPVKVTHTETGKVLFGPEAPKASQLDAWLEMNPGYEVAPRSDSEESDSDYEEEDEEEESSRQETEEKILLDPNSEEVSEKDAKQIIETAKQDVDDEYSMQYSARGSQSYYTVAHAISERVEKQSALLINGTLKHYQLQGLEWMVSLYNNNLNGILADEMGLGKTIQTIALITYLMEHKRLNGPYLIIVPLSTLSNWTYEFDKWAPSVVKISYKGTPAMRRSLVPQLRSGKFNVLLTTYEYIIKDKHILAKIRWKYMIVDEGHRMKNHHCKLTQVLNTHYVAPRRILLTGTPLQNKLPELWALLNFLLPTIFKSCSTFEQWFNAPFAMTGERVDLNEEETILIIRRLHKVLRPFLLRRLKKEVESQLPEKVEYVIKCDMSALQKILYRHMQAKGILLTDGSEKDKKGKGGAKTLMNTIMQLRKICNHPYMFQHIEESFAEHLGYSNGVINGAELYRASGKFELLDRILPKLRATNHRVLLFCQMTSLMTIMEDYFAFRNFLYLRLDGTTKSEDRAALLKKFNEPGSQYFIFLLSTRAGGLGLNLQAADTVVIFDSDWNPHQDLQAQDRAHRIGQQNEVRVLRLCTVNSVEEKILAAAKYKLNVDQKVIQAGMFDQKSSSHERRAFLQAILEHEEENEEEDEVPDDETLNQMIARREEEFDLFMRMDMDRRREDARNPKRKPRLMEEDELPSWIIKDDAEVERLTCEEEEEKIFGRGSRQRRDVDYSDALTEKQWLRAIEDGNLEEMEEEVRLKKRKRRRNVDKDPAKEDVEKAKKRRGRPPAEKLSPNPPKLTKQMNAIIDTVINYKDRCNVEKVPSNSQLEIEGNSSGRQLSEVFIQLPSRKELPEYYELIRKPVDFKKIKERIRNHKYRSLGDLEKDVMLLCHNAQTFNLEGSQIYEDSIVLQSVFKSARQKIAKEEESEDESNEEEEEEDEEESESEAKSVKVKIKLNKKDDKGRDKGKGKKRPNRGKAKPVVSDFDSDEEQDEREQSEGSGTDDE

Dmax [%]	DC50 [µM]	Structure (SMILES)
< 50	> 1	Cc1ncsc1-c1ccc(CNC(=O)[C@@H]2C[C@@H](O)CN2C(=O)[C@@H](NC(=O)CCCCCN(C)Cc2ccc(N3CCN(c4cc(-c5ccccc5O)nnc4N)CC3)cc2)C(C)(C)C)cc1 [I-212, (2S,4R)-1-[(2S)-2-[6-[[4-[4-[3-amino-6-(2-hydroxyphenyl)pyridazin-4-yl]piperazin-1-yl]phenyl]methyl-methyl-amino]hexanoylamino]-3,3-dimethyl-butanoyl]-4-hydroxy-N-[[4-(4-methylthiazol-5-yl)phenyl]methyl]pyrrolidine-2-carboxamide]
50 to 70	0.501 to 1	Cn1c(=O)n(C2CCC(=O)NC2=O)c2ccc(CCCCCN3CCC[C@@H](Cn4cc(-c5cc(-c6ccccc6O)nnc5N)cn4)C3)cc21 (stereo partly drawn) [I-193, 3-[5-[5-[(3R)-3-[[4-[3-amino-6-(2-hydroxyphenyl)pyridazin-4-yl]pyrazol-1-yl]methyl]-1-piperidyl]pentyl]-3-methyl-2-oxo-benzimidazol-1-yl]piperidine-2,6-dione]
	> 1	CN[C@@H](C)C(=O)N[C@H](C(=O)N1Cc2cc(OCCOCCOCCOCCNC(=O)CCCOc3cccc(N4C[C@H]5C[C@@H]4CN5/C=C/C(=O)c4ccccc4O)n3)ccc2C[C@H]1C(=O)N[C@@H]1CCCc2ccccc21)C(C)(C)C [I-199]
< 50	> 1	Cn1c(=O)n(C2CCC(=O)NC2=O)c2cccc(CCCCCCCCN3CCN(c4cc(-c5ccccc5O)nnc4N)CC3)c21 (stereo not drawn) [I-185]
50 to 70	0.501 to 1	Nc1nnc(-c2ccccc2O)cc1N1CCN(c2ccc(CNCCOCCCc3cccc4c3oc(=O)n4C3CCC(=O)NC3=O)cc2)CC1 (stereo not drawn) [I-116]
> 90	< 0.1	Cn1c(=O)n(C2CCC(=O)NC2=O)c2cccc(CCCN3CCCC(n4cc(-c5cc(-c6ccccc6O)nnc5N)cn4)C3)c21 (stereo not drawn) [I-169, 3-(4-(3-(3-(4-(3-amino-6-(2-hydroxyphenyl)pyridazin-4-yl)-1H-pyrazol-1-yl)piperidin-1-yl)propyl)-3-methyl-2-oxo-2,3-dihydro-1H-benzo[d]imidazol-1-yl)piperidine-2,6-dione]
50 to 70	< 0.1	Cn1c(=O)n(C2CCC(=O)NC2=O)c2ccc(CCCOCCCCN3CCN(Cc4ccc(-c5cc(-c6ccccc6O)nnc5N)cc4)CC3)cc21 (stereo not drawn) [I-138]
70 to 90	0.501 to 1	Cc1ncsc1-c1ccc(CNC(=O)[C@@H]2C[C@@H](O)CN2C(=O)[C@@H](NC(=O)CCCCCCCCCN(C)Cc2ccc(N3CCN(c4cc(-c5ccccc5O)nnc4N)CC3)cc2)C(C)(C)C)cc1 [I-213]
70 to 90	< 0.1	Cn1c(=O)n(C2CCC(=O)NC2=O)c2cccc(CCCCCCCN3CCC(n4cc(-c5cc(-c6ccccc6O)nnc5N)cn4)CC3)c21 (stereo not drawn) [I-176]
> 90	0.1 to 0.5	CN(CCCN1CCC(c2cccc3c2n(C)c(=O)n3C2CCC(=O)NC2=O)CC1)Cc1ccc(N2CCN(c3cc(-c4ccccc4O)nnc3N)CC2)cc1 (stereo not drawn) [I-110]
< 50	> 1	Cn1c(=O)n(C2CCC(=O)NC2=O)c2ccc(CCCCN3CCN(Cc4ccc(-c5cc(-c6ccccc6O)nnc5N)cc4)CC3)cc21 (stereo not drawn) [I-154]
> 90	< 0.1	Cn1c(=O)n(C2CCC(=O)NC2=O)c2ccc(CCCCOCCCCNCc3ccc(N4CCN(c5cc(-c6ccccc6O)nnc5N)CC4)cc3)cc21 (stereo not drawn) [I-128]
	> 1	Cc1ncsc1-c1ccc(CNC(=O)[C@@H]2C[C@@H](O)CN2C(=O)[C@@H](NC(=O)COCCOCCOCCNC(=O)CCCCCCCCOc2ccc(N3C[C@H]4C[C@@H]3CN4/C=C/C(=O)c3ccccc3O)nc2)C(C)(C)C)cc1 [I-228]

The next lines start with the compound.

Structure (SMILES)	Dmax [%]	DC50 [µM]
Cc1ncsc1-c1ccc(CNC(=O)[C@@H]2C[C@@H](O)CN2C(=O)[C@@H](NC(=O)CN2CCC(c3cnc(N4C5CCC4CN(c4cc(-c6ccccc6O)nnc4N)C5)nc3)CC2)C(C)(C)C)cc1 [I-211, (2S,4R)-1-[(2S)-2-[[2-[4-[2-[3-[3-amino-6-(2-hydroxyphenyl)pyridazin-4-yl]-3,8-diazabicyclo[3.2.1]octan-8-yl]pyrimidin-5-yl]-1-piperidyl]acetyl]amino]-3,3-dimethyl-butanoyl]-4-hydroxy-N-[[4-(4-methylthiazol-5-yl)phenyl]methyl]pyrrolidine-2-carboxamide]	> 90	0.1 to 0.5
O=C1CCC(N2C(=O)c3cccc(OCCc4cn(CCCc5cccc(N6C[C@H]7C[C@@H]6CN7/C=C/C(=O)c6ccccc6O)n5)nn4)c3C2=O)C(=O)N1 (stereo partly drawn) [I-69]	< 50	> 1
Cn1c(=O)n(C2CCC(=O)NC2=O)c2ccc(CCCOc3cccc(CN4CCN(c5cc(-c6ccccc6O)nnc5N)CC4)c3)cc21 (stereo not drawn) [I-100]	< 50	> 1
CC(c1ccc(C(=O)NCCOCCOCCOCCOCCOCCNc2cccc3c2C(=O)N(C2CCC(=O)NC2=O)C3=O)cc1)n1cc(-c2cc(-c3ccccc3O)nnc2N)cn1 (stereo not drawn) [I-11]		> 1
Cn1c(=O)n(C2CCC(=O)NC2=O)c2ccc(CCCCOc3cccc(CN4CCN(c5cc(-c6ccccc6O)nnc5N)CC4)c3)cc21 (stereo not drawn) [I-101]	< 50	> 1
Cn1c(=O)n(C2CCC(=O)NC2=O)c2ccc(CCCOCCOCCOCCNC(=O)CCCCCCCCOc3ccc(N4C[C@H]5C[C@@H]4CN5/C=C/C(=O)c4ccccc4O)nc3)cc21 (stereo partly drawn) [I-4]		> 1
Cn1c(=O)n(C2CCC(=O)NC2=O)c2ccc(CNCCCc3cn(Cc4cccc(N5C[C@H]6C[C@@H]5CN6/C=C/C(=O)c5ccccc5O)n4)nn3)cc21 (stereo partly drawn) [I-74]	< 50	> 1
Cn1c(=O)n(C2CCC(=O)NC2=O)c2ccc(CCCOCCOc3cccc(N4C[C@H]5C[C@@H]4CN5/C=C/C(=O)c4ccccc4O)n3)cc21 (stereo partly drawn) [I-31, 3-[5-[3-[2-[[6-[(1R,4R)-5-[(E)-3-(2-hydroxyphenyl)-3-oxo-prop-1-enyl]-2,5-diazabicyclo[2.2.1]heptan-2-yl]-2-pyridyl]oxy]ethoxy]propyl]-3-methyl-2-oxo-benzimidazol-1-yl]piperidine-2,6-dione]		> 1
Cn1c(=O)n(C2CCC(=O)NC2=O)c2cccc(C#CCCc3cn(Cc4cccc(N5C[C@H]6C[C@@H]5CN6/C=C/C(=O)c5ccccc5O)n4)nn3)c21 (stereo partly drawn) [I-64]	70 to 90	> 1
Cn1c(=O)n(C2CCC(=O)NC2=O)c2cccc(CNCCCCCCc3cn(Cc4cccc(N5C[C@H]6C[C@@H]5CN6/C=C/C(=O)c5ccccc5O)n4)nn3)c21 (stereo partly drawn) [I-82]	< 50	> 1
Cn1c(=O)n(C2CCC(=O)NC2=O)c2cccc(CCCOc3ccc(CN4CCN(c5cc(-c6ccccc6O)nnc5N)CC4)cc3)c21 (stereo not drawn) [I-90]	50 to 70	> 1
Cn1c(=O)n(C2CCC(=O)NC2=O)c2ccc(CCCCCCCOc3cccc(CN4CCN(c5cc(-c6ccccc6O)nnc5N)CC4)c3)cc21 (stereo not drawn) [I-104]	70 to 90	0.1 to 0.5
Cn1c(=O)n(C2CCC(=O)NC2=O)c2ccc(CNCCCCCc3cn(Cc4cccc(N5C[C@H]6C[C@@H]5CN6/C=C/C(=O)c5ccccc5O)n4)nn3)cc21 (stereo partly drawn) [I-76]	< 50	> 1
O=C1CCC(N2C(=O)c3cccc(OCCc4cn(Cc5cccc(N6C[C@H]7C[C@@H]6CN7/C=C/C(=O)c6ccccc6O)n5)nn4)c3C2=O)C(=O)N1 (stereo partly drawn) [I-35]		> 1
Cn1c(=O)n(C2CCC(=O)NC2=O)c2ccc(CCCCCCOc3ccc(CN4CCN(c5cc(-c6ccccc6O)nnc5N)CC4)cc3)cc21 (stereo not drawn) [I-86]	< 50	> 1
Cc1ncsc1-c1ccc(CNC(=O)[C@@H]2C[C@@H](O)CN2C(=O)[C@@H](NC(=O)CCCCCN2CCC(c3cnc(N4C5CCC4CN(c4cc(-c6ccccc6O)nnc4N)C5)nc3)CC2)C(C)(C)C)cc1 [I-210, (2S,4R)-1-[(2S)-2-[6-[4-[2-[3-[3-amino-6-(2-hydroxyphenyl)pyridazin-4-yl]-3,8-diazabicyclo[3.2.1]octan-8-yl]pyrimidin-5-yl]-1-piperidyl]hexanoylamino]-3,3-dimethyl-butanoyl]-4-hydroxy-N-[[4-(4-methylthiazol-5-yl)phenyl]methyl]pyrrolidine-2-carboxamide]	> 90	0.501 to 1
Nc1nnc(-c2ccccc2O)cc1N1C[C@H]2C[C@@H]1CN2c1cccc(Cn2cc(CCCCOc3cccc4c3C(=O)N(C3CCC(=O)NC3=O)C4=O)nn2)n1 (stereo partly drawn) [I-43]	70 to 90	> 1
